Reference: patent US12336981B2, “Compounds and compositions for the inhibition of NAMPT” (Valo Health, Inc., priority 2010, dated 2025)
pIC50: −log10 of the molar value. Like-named read-outs stand apart in the source and are kept apart here.

Experiments:
NAMPT = target: T1, NAMPT (Homo sapiens, UniProt P43490); assay: Biochemical inhibition assay: NAMPT enzymatic reaction, NMN quantified by mass spectrometry; details: read-out: Biochem IC50
T1 construct: His tag; host or cells: E. coli
Method in brief: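 Inhibition of E. coli-expressed His-tagged human NAMPT, measured as NMN formation by mass spectrometry after a 30 min room-temperature reaction containing 1 μM NAM, 100 μM PRPP and 2.5 mM ATP.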

A2780 cells = assay: In-vitro cell proliferation assay (SRB), A2780 cells; type: cell-based; details: Homo sapiens, A2780, 72 h, A2780 cells, 72 hours, read-out: A2780 IC50
Method in brief: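 Viable cells measured by SRB staining after 6% TCA fixation, absorbance 570 nm. Media-only background subtracted; % inhibition derived at two compound concentrations.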

T1 sequence (P43490 whole entry): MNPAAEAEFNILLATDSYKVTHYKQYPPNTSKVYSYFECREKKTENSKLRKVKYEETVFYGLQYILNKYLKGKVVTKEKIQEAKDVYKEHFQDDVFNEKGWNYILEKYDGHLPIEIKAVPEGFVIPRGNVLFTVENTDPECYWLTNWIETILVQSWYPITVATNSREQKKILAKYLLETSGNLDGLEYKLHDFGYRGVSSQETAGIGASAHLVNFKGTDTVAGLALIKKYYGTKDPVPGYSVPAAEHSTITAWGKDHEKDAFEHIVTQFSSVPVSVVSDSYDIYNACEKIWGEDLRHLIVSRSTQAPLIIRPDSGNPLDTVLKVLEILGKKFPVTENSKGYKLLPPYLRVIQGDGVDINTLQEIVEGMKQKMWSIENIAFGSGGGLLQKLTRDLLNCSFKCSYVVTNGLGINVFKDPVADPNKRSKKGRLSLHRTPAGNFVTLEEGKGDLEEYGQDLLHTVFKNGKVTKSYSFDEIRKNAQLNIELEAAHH

| Structure (SMILES) | pIC50 (NAMPT; NAMPT enzymatic reaction) | pIC50 (A2780 cells; SRB assay) | pIC50 (A2780 cells; SRB) | pIC50 (NAMPT; NAMPT enzymatic assay) |
| --- | --- | --- | --- | --- |
| CCc1ccc(S(=O)(=O)c2ccc(CNC(=O)c3cc4cnccc4[nH]3)cc2)cc1 [N-({4-[(4-ethylbenzene)sulfonyl]phenyl}methyl)-1H-pyrrolo[3,2-c]pyridine-2-carboxamide] | 8.10 | 7.92 |  |  |
| CCOc1cccc(S(=O)(=O)c2ccc(CNC(=O)c3cc4ccncc4o3)cc2)c1 [N-({4-[(3-ethoxybenzene)sulfonyl]phenyl}methyl)furo[2,3-c]pyridine-2-carboxamide] | 8.17 |  | 7.96 |  |
| N#CC1(c2ccc(S(=O)(=O)c3ccc(CNC(=O)c4cc5cnccc5[nH]4)cc3)cc2)CCCC1 |  |  | 7.72 | 7.22 |
| COc1cccc(S(=O)(=O)c2ccc(CNC(=O)c3cc4cnccc4[nH]3)cc2)c1F [N-({4-[(2-fluoro-3-methoxybenzene)sulfonyl]phenyl}methyl)-1H-pyrrolo[3,2-c]pyridine-2-carboxamide] | 8.00 | 8.15 |  |  |
| COc1ccccc1S(=O)(=O)c1ccc(CNC(=O)c2cc3ccncc3o2)cc1 [N-({4-[(2-methoxybenzene)sulfonyl]phenyl}methyl)furo[2,3-c]pyridine-2-carboxamide] | 7.72 |  | 7.58 |  |
| Cc1ccc(F)c(S(=O)(=O)c2ccc(CNC(=O)c3cc4cnccc4[nH]3)cc2)c1 [N-({4-[(2-fluoro-5-methylbenzene)sulfonyl]phenyl}methyl)-1H-pyrrolo[3,2-c]pyridine-2-carboxamide] | 7.60 | 7.62 |  |  |
| O=C(NCc1ccc(S(=O)(=O)c2cccc(N3CCCCC3)c2)cc1)c1cc2cc(O)ccc2[nH]1 | 6.00 to 7.00 |  | 5.00 to 6.00 |  |
| Cc1cc(C(F)(F)F)ccc1S(=O)(=O)c1ccc(CNC(=O)c2cnc3[nH]ncc3c2)cc1 [N-[(4-{[2-methyl-4-(trifluoromethyl)benzene]sulfonyl}phenyl)methyl]-1H-pyrazolo[3,4-b]pyridine-5-carboxamide] |  |  | 7.13 | 6.00 to 7.00 |
| O=C(NCc1ccc(S(=O)(=O)c2ccccc2Oc2ccccc2)cc1)c1cc2ccncc2o1 | 7.69 |  | 5.00 to 6.00 |  |
| CCCOc1ccc(S(=O)(=O)c2ccc(CNC(=O)c3cnc4[nH]ncc4c3)cc2)c(C)c1 | 7.19 |  | 7.10 |  |
| O=C(NCc1ccc(S(=O)(=O)c2cccc(-c3ccccc3)c2)cc1)c1ccc2ncsc2c1 [N-({4-[(3-phenylbenzene)sulfonyl]phenyl}methyl)-1,3-benzothiazole-6-carboxamide] | 7.73 |  | 5.00 to 6.00 |  |
| Cc1ccc(Cl)c(S(=O)(=O)c2ccc(CNC(=O)c3ccc4nccn4c3)cc2)c1 | 8.25 |  | 8.34 |  |
| O=C(NCc1ccc(S(=O)(=O)c2ccc(-c3ccccc3)cc2)cc1)c1cc2ccncc2s1 | 8.52 |  | 7.97 |  |
| CN(C)c1ncc(S(=O)(=O)c2ccc(CNC(=O)c3cnc4[nH]ncc4c3)cc2)cn1 [N-({4-[2-(dimethylamino)pyrimidine-5-sulfonyl]phenyl}methyl)-1H-pyrazolo[3,4-b]pyridine-5-carboxamide] |  |  | 8.23 | 8.10 |
| O=C(NCc1ccc(S(=O)(=O)c2nccs2)cc1)c1cc2ccncc2s1 [N-{[4-(1,3-thiazole-2-sulfonyl)phenyl]methyl}thieno[2,3-c]pyridine-2-carboxamide] |  |  | 7.12 | 7.84 |
| O=C(NCc1ccc(S(=O)(=O)c2ccc(C(F)(F)F)c(F)c2)cc1)c1cc2ccncc2o1 |  |  | 7.86 | 8.04 |
| O=C(NCc1ccc(S(=O)(=O)c2cccc(O)c2)cc1)c1ccc2nccn2c1 | 8.30 |  | 8.15 |  |

| Structure (SMILES) | pIC50 (NAMPT; NAMPT enzymatic reaction) | pIC50 (A2780 cells; SRB assay) | pIC50 (A2780 cells; SRB) | pIC50 (NAMPT; NAMPT enzymatic assay) |
| --- | --- | --- | --- | --- |
| O=C(NCc1ccc(S(=O)(=O)c2ccc(C(F)(F)F)c(F)c2)cc1)c1ccc2nccn2c1 |  |  | 8.36 | 7.40 |
| COc1ccc(OC)c(S(=O)(=O)c2ccc(CNC(=O)c3cnc4nccn4c3)cc2)c1 [N-({4-[(2,5-dimethoxybenzene)sulfonyl]phenyl}methyl)imidazo[1,2-a]pyrimidine-6-carboxamide] | 8.16 |  | 7.34 |  |
| COc1ccccc1S(=O)(=O)c1ccc(CNC(=O)c2cc3cnccc3[nH]2)cc1 [N-({4-[(2-methoxybenzene)sulfonyl]phenyl}methyl)-1H-pyrrolo[3,2-c]pyridine-2-carboxamide] | 8.05 | 8.15 |  |  |
| COc1cccc(S(=O)(=O)c2ccc(CNC(=O)c3cc4ccncc4o3)cc2)c1OC | 8.03 |  | 7.87 |  |
| CC(=O)c1ccccc1S(=O)(=O)c1ccc(CNC(=O)c2cc3ccncc3o2)cc1 [N-({4-[(2-acetylbenzene)sulfonyl]phenyl}methyl)furo[2,3-c]pyridine-2-carboxamide] | 8.24 |  | 8.19 |  |
| COc1ccc(S(=O)(=O)c2ccc(CNC(=O)c3cc4ccncc4o3)cc2)c(OC)n1 [N-{[4-(2,6-dimethoxypyridine-3-sulfonyl)phenyl]methyl}furo[2,3-c]pyridine-2-carboxamide] |  |  | 7.96 | 8.18 |
| O=C(NCc1ccc(S(=O)(=O)c2cccc3ccccc23)cc1)c1cnc2nccn2c1 [N-{[4-(naphthalene-1-sulfonyl)phenyl]methyl}imidazo[1,2-a]pyrimidine-6-carboxamide] |  |  | 8.44 | 8.54 |
| O=C(NCc1ccc(S(=O)(=O)c2cccc(-c3ccc(F)c(F)c3)n2)cc1)c1cc2cnccc2[nH]1 [N-({4-[6-(3,4-difluorophenyl)pyridine-2-sulfonyl]phenyl}methyl)-1H-pyrrolo[3,2-c]pyridine-2-carboxamide] |  |  | 7.90 | 7.80 |
| O=C(NCc1ccc(S(=O)(=O)c2cc(C(F)(F)F)ccc2Cl)cc1)c1cnc2nccn2c1 |  |  | 7.85 | 8.15 |
| O=C(NCc1ccc(S(=O)(=O)c2cccc(OC(F)F)c2)cc1)c1cnc2nccn2c1 |  |  | 8.30 | 8.68 |
| O=C(NCc1ccc(S(=O)(=O)c2ccc(C(F)F)c(F)c2)cc1)c1cnc2nccn2c1 [N-[(4-{[4-(difluoromethyl)-3-fluorobenzene]sulfonyl}phenyl)methyl]imidazo[1,2-a]pyrimidine-6-carboxamide] |  |  | 7.55 | 8.09 |
| O=C(NCc1ccc(S(=O)(=O)c2cccc3c2OCC3)cc1)c1cc2ccncc2o1 [N-{[4-(2,3-dihydro-1-benzofuran-7-sulfonyl)phenyl]methyl}furo[2,3-c]pyridine-2-carboxamide] |  |  | 8.15 | 8.22 |
| CCOc1ccc(S(=O)(=O)c2ccc(CNC(=O)c3cnc4[nH]ncc4c3)cc2)cc1F | 8.02 |  | 8.28 |  |
| COc1cc(S(=O)(=O)c2ccc(CNC(=O)c3cnc4nccn4c3)cc2)ccc1C | 8.89 |  | 8.77 |  |
| O=C(NCc1ccc(S(=O)(=O)c2ccccc2)cc1)N1CCc2ncncc2C1 [N-{[4-(benzenesulfonyl)phenyl]methyl}-5H,6H,7H,8H-pyrido[4,3-d]pyrimidine-6-carboxamide] | < 5.70 | < 5.70 |  |  |
| Cc1cc(F)ccc1S(=O)(=O)c1ccc(CNC(=O)c2cc3ccncc3o2)cc1 | 7.73 |  | 7.19 |  |
| O=C(NCc1ccc(S(=O)(=O)c2ccc(F)c(C(F)(F)F)c2)cc1)c1cnc2[nH]ncc2c1 [N-[(4-{[4-fluoro-3-(trifluoromethyl)benzene]sulfonyl}phenyl)methyl]-1H-pyrazolo[3,4-b]pyridine-5-carboxamide] |  |  | 7.86 | 7.40 |
